Assay [1] has as its target T1, hMCD (Homo sapiens, UniProt O95822).
T1 sequence (O95822 40-493): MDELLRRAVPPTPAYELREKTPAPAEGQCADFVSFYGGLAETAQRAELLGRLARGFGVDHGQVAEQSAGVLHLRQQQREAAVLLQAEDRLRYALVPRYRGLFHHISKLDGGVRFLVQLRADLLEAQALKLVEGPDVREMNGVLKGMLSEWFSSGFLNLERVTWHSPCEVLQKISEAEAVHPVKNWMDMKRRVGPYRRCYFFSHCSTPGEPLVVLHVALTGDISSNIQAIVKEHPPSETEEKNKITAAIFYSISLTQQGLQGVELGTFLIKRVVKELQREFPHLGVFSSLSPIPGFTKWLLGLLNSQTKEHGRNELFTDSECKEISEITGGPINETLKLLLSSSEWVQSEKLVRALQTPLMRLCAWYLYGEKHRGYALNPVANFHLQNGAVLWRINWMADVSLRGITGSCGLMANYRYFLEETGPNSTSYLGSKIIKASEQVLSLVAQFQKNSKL
Nature of the assay: In vitro MCD inhibitory assay. The assay is classed as biochemical. As to conditions: read-out: Ki, in vitro MCD inhibitory activities. The text has this: In Vitro MCD Inhibitory Assay
As shown in eq. 1-3, the establishment of the kinetic equilibrium between malate/NAD and oxaloacetate/NADH was catalyzed by malic dehydrogenase (eq. 2). […] The accumulation of NADH can be continuously followed by monitoring the increase of fluorescence emission at 460 nm on a fluorescence plate reader. The fluorescence plate reader was calibrated using the authentic acetyl-CoA from Sigma. For a typical 96-well plate assay, the increase in the fluorescence emission (λex=360 nm, λem=460 nm, for NADH) in each well was used to calculate the initial velocity of hMCD. Each 50 μL assay contained 10 mM phosphate buffered saline (Sigma), pH 7.4, 0.05% Tween-20, 25 mM K2HPO4—KH2PO4 (Sigma), 2 mM Malate (Sigma), 2 mM NAD (Boehringer Mannheim), 0.786 units of MD (Roche Chemicals), 0.028 unit of CS (Roche Chemicals), 5-10 nM hMCD, and varying amounts of MCA substrate. Assays were initiated by the addition of MCA, and the rates were corrected for the background rate determined in the absence of hMCD.

In assay [2] the test system is muscle (M) isoform of CPT-I. As to conditions: read-out: IC50 of malonyl-CoA inhibition of CPT-I; cited from earlier work.
Assay [3] has as its system Isolated Working Rat Hearts. Nature of the assay: Glucose oxidation in isolated working rat hearts. How it is done: Isolated Working Rat Heart Assay Protocol
Isolated working hearts from male Sprague-Dawley rats (300-350 g) are subjected to a 60-minute aerobic perfusion period. The working hearts are perfused with 95% O2, 5% CO2 with a modified Krebs-Henseleit solution containing 5 mM glucose; 100 μU/mL insulin; 3% fatty acid-free BSA; 2.5 mM free Ca^2+, and 0.4 to 1.2 mmol/L palmitate (Kantor et al., Circulation Research 86:580-588 (2000)). The test compound is added 5 minutes before the perfusion period. DMSO (0.05%) is used as control.
Measurement of Glucose Oxidation Rates
Samples were taken at 10-minute intervals for measurements of experimental parameters. Glucose oxidation rates are determined by the quantitative collection of ^14CO2 produced by hearts perfused with buffer containing [U14]-Glucose (R. Barr and G. Lopaschuk, in “Measurement of cardiovascular function”, McNeill, J. H. ed., Chapter 2, CRC press, New York (1997)). After the perfusion, the ^14CO2 from the perfusae is subsequently released by injecting 1 mL of perfusate into sealed test tube containing 1 mL of 9NH2SO4. The tube was sealed with a rubber stopper attached to a scintillation vial containing a piece of filter papers saturated with 300 μl of hyamine hydroxide. The scintillation vials with filter papers were then removed and Ecolite Scintillation Fluid added. Samples were counted by standard procedures as described above. Average rates of glucose oxidation for each phase of perfusion are expressed as μmol/min/g dry wt as described above.
Active compounds are characterized by an increase in glucose oxidation and/or decrease in fatty acid oxidation as compared to the control experiments (DMSO). The compounds that caused statistically significant increases in glucose oxidation and/or decrease in fatty acid oxidation are considered to be active. Statistical significance was calculated using the Student's t test for paired or unpaired samples, as appropriate. The results with P<0.05 are considered to be statistically significant.

For assay [4], the system named is breast carcinoma cells. As to conditions: cited from earlier work.

As usually defined, the Ki is the equilibrium dissociation constant of an inhibitor or competing ligand from its target. As for `CC(C)N(C(=O)NC1CCN(S(=O)(=O)c2ccccc2)CC1)c1ccc2nc(S)sc2c1` [CBM-000302277], the Ki in assay [1] is 2.8 nM.

For the compound `CC(C)N(C(=O)NC1CCN(C(=O)c2ccc(C(F)(F)F)cc2)CC1)c1ccc2nc(S)sc2c1` [CBM-000302217], the Ki in assay [1] was found to be 42.3 nM.

What is called IC50 is the concentration needed to halve the response being measured. `CC(C)(COP(=O)(O)OP(=O)(O)OC[C@H]1O[C@@H](n2cnc3c(N)ncnc32)[C@H](O)[C@@H]1OP(=O)(O)O)[C@@H](O)C(=O)NCCC(=O)NCCSC(=O)CC(=O)O` [Malonyl-CoA]: in assay [2], the IC50 is 30 nM.

Turning to `CC(C)N(C(=O)NC1CCN(C(=O)OCc2ccccc2)CC1)c1ccc2nc(S)sc2c1` [CBM-000302130], the Ki in assay [1] worked out at 11 nM.

As for `CC(C)c1ccc(S(=O)(=O)N2CCC(NC(=O)N(c3ccc4nc(S)sc4c3)C(C)C)CC2)cc1` [CBM-000302387], in assay [1], the Ki came to 125 nM.

Regarding `COC(=O)CCC(=O)N1CCC(NC(=O)N(c2ccc3nc(S)sc3c2)C(C)C)CC1` [CBM-000302316], the Ki in assay [1] stood at 99.6 nM.

As for `COc1cccc(S(=O)(=O)N2CCC(NC(=O)N(c3ccc4nc(S)sc4c3)C(C)C)CC2)c1` [CBM-000302386], the Ki in assay [1] was 1.3 nM.

With `CC(C)N(C(=O)NC1CCN(S(=O)(=O)c2cccc(C#N)c2)CC1)c1ccc2nc(S)sc2c1` [CBM-000302343], the Ki in assay [1] turned out to be 3.8 nM. For the same compound, in assay [3], the “GOX (%), glucose oxidation rate relative to DMSO (100%)” value was 177%.

With `CC(C)N(C(=O)NC1CCN(c2ccc(OC(F)(F)F)cc2)CC1)c1ccc2nc(S)sc2c1` [CBM-000302361], the Ki in assay [1] came out at 87.2 nM.

In the case of `CC(C)N(C(=O)NC1CCN(C(=O)Nc2ccc(C(F)(F)F)cc2)CC1)c1ccc2nc(S)sc2c1` [CBM-000302219], the Ki in assay [1] was 30.5 nM.

On to `CC(C)N(C(=O)NC1CCN(S(=O)(=O)c2cccc(Cl)c2)CC1)c1ccc2nc(S)sc2c1` [CBM-000302342], for which the inhibition constant (Ki) in assay [1] worked out at 0.7 nM. For the same compound, in assay [3], the “GOX (%), glucose oxidation rate relative to DMSO (100%)” value is 285%.

For the compound `CN(C(=O)NC1CCN(S(=O)(=O)c2ccccc2)CC1)c1ccc2nc(S)sc2c1` [CBM-000302281, 3-(1-Benzenesulfonyl-piperidin-4-yl)-1-(2-mercapto-benzothiazol-6-yl)-1-methyl-urea], the “GOX (%), glucose oxidation rate relative to DMSO (100%)” value in assay [3] was determined as 190%.

For the compound `CC(C)N(C(=O)NC1CCN(S(=O)(=O)c2ccc(F)cc2)CC1)c1ccc2nc(S)sc2c1` [CBM-000302425], the Ki in assay [1] was 1.4 nM.

In the case of `CC(=O)c1ccc(S(=O)(=O)N2CCC(NC(=O)N(c3ccc4nc(S)sc4c3)C(C)C)CC2)cc1` [CBM-000302389], in assay [1], the inhibition constant (Ki) is 84.3 nM.

For the compound `CC(C)N(C(=O)NC1CCN(C(=O)COc2ccccc2)CC1)c1ccc2nc(S)sc2c1` [CBM-000302218], in assay [1], the Ki turned out to be 7.4 nM. In addition, the “GOX (%), glucose oxidation rate relative to DMSO (100%)” value in assay [3] is recorded as 236%.

Take `CCCC(=O)N1CCC(NC(=O)N(c2ccc3nc(S)sc3c2)C(C)C)CC1` [CBM-000302314]: the Ki in assay [1] turned out to be 58.5 nM.

On to `CC(C)N(C(=O)NC1CCN(S(=O)(=O)c2ccc(C#N)cc2)CC1)c1ccc2nc(S)sc2c1` [CBM-000302424], for which the inhibition constant Ki in assay [1] was determined as 123 nM.

Take `CC(C)N(C(=O)NC1CCN(CCCC(F)(F)F)CC1)c1ccc2nc(S)sc2c1` [CBM-000302182]: the Ki in assay [1] is 80 nM.

Regarding `CC(C)Oc1ccc(S(=O)(=O)N2CCC(NC(=O)N(c3ccc4nc(S)sc4c3)C(C)C)CC2)cc1` [CBM-000302368], the Ki in assay [1] was 624 nM.

With `CCCCS(=O)(=O)N1CCC(NC(=O)N(c2ccc3nc(S)sc3c2)C(C)C)CC1` [CBM-000302276], the Ki in assay [1] was found to be 0.7 nM. Besides, in assay [3], the “GOX (%), glucose oxidation rate relative to DMSO (100%)” value is 310%.

`CC(C)N(C(=O)NC1CCN(S(=O)(=O)Cc2ccccc2)CC1)c1ccc2nc(S)sc2c1` [CBM-000302405]: the Ki in assay [1] worked out at 7.8 nM.

With `CC(C)N(C(=O)NC1CCN(C(=O)c2ccco2)CC1)c1ccc2nc(S)sc2c1` [CBM-000302360], in assay [1], the Ki was 24 nM.

As for `CC(C)N(C(=O)NC1CCN(S(=O)(=O)c2cnc(Cl)c(Br)c2)CC1)c1ccc2nc(S)sc2c1` [CBM-000302426], the Ki in assay [1] came out at 19.3 nM.

Turning to `COc1ccc(S(=O)(=O)N2CCC(NC(=O)N(c3ccc4nc(S)sc4c3)C(C)C)CC2)cc1` [CBM-000302407], the Ki in assay [1] amounted to 17.5 nM.

Take `CC(C)N(C(=O)NC1CCN(S(=O)(=O)c2ccc(F)c(Cl)c2)CC1)c1ccc2nc(S)sc2c1` [CBM-000302406]: in assay [1], the Ki is 1.4 nM.

As to `CC(C)N(C(=O)NC1CCN(S(=O)(=O)c2ccc(OC(F)(F)F)cc2)CC1)c1ccc2nc(S)sc2c1` [CBM-000302278], the Ki in assay [1] was 105 nM.

For the compound `CC(C)N(C(=O)NC1CCN(S(=O)(=O)c2ccc(C(F)(F)F)cc2)CC1)c1ccc2nc(S)sc2c1` [CBM-000302279], the Ki in assay [1] was 61.6 nM.

In the case of `CC(C)N(C(=O)NC1CCN(C(=O)CCC2CCCC2)CC1)c1ccc2nc(S)sc2c1` [CBM-000302275], the inhibition constant Ki in assay [1] was 22.4 nM.

For the compound `CC(C)N(C(=O)NC1CCN(S(=O)(=O)c2ccc(C(C)(C)C)cc2)CC1)c1ccc2nc(S)sc2c1` [CBM-000302344], the inhibition constant Ki in assay [1] turned out to be 133 nM.

As for `CCc1ccc(S(=O)(=O)N2CCC(NC(=O)N(c3ccc4nc(S)sc4c3)C(C)C)CC2)cc1` [CBM-000302404], the Ki in assay [1] was found to be 27.5 nM.

Consider `CC(C)N(C(=O)NC1CCN(C(=O)c2ccc(F)cc2)CC1)c1ccc2nc(S)sc2c1` [CBM-000302348], for which the Ki in assay [1] came out at 40.7 nM.

Regarding `CC(C)N(C(=O)NC1CCN(S(=O)(=O)C(C)C)CC1)c1ccc2nc(S)sc2c1` [CBM-000302215, 1-Isopropyl-1-(2-mercapto-benzothiazol-6-yl)-3-[1-(propane-2-sulfonyl)-piperidin-4-yl]-urea], the inhibitory constant (Ki) in assay [1] is 19.1 nM.

On to `CCCCOc1ccc(C(=O)N2CCC(NC(=O)N(c3ccc4nc(S)sc4c3)C(C)C)CC2)cc1` [CBM-000302216], for which the Ki in assay [1] was found to be 88.1 nM.

For `CC(C)N(C(=O)NC1CCN(S(=O)(=O)c2cccc(F)c2)CC1)c1ccc2nc(S)sc2c1` [CBM-000302369], the inhibition constant (Ki) in assay [1] amounted to 2.8 nM.

Turning to `CCCc1ccc(S(=O)(=O)N2CCC(NC(=O)N(c3ccc4nc(S)sc4c3)C(C)C)CC2)cc1` [CBM-000302384], the inhibitory constant (Ki) in assay [1] came to 66.1 nM.

Turning to `CCCNC(=O)N1CCC(NC(=O)N(c2ccc3nc(S)sc3c2)C(C)C)CC1` [CBM-000302274], in assay [1], the inhibition constant (Ki) stood at 40.6 nM.

As to `COc1ccc(C(=O)N2CCC(NC(=O)N(c3ccc4nc(S)sc4c3)C(C)C)CC2)cc1` [CBM-000302359], the Ki in assay [1] was 7.2 nM.

For the compound `CC(C)N(C(=O)NC1CCN(C(=O)CCc2ccccc2)CC1)c1ccc2nc(S)sc2c1` [CBM-000302220], the inhibition constant Ki in assay [1] stood at 20.4 nM.

As to `CC(C)CCC(=O)N1CCC(NC(=O)N(c2ccc3nc(S)sc3c2)C(C)C)CC1` [CBM-000302313, 1-isopropyl-1-(2-mercapto-benzothiazole-6-yl)-3-[1-(4-methyl-pentanolyl)-piperidin-4-yl]-urea], the Ki in assay [1] came out at 23.5 nM.

`CC(C)N(C(=O)NC1CCN(S(=O)(=O)c2cccc(C(F)(F)F)c2)CC1)c1ccc2nc(S)sc2c1` [CBM-000302280]: the inhibition constant Ki in assay [1] stood at 2.6 nM. In addition, in assay [3], the “GOX (%), glucose oxidation rate relative to DMSO (100%)” value stood at 683%.

For `CCCCCCCCCCCCCCOc1ccc(C(=O)O)o1` [TOFA, 5-(tetradecyloxy)-2-furoic acid], the “malonyl-CoA level, % of the control” value in assay [4] is 60%.

The values above are taken from patent US8080665B2 (Chugai Seiyaku Kabushiki Kaisha, priority 2003, dated 2011).
